Source: US7491794B2, “Macrocyclic compounds as inhibitors of viral replication” (Intermune, Inc., priority 2003, dated 2009)

How the values were obtained:
NS3-NS4A protease = biological target: T1, NS3-NS4A protease (Hepatitis C virus genotype 1a, UniProt P27958); test: NS3-NS4A protease assay (NS3 inhibition assay, RETS1 substrate), Section B; format: biochemical; conditions: read-out: NS3-NS4A IC50
T1 construct: Recombinant E. coli or Baculovirus full-length NS3 was diluted to 3.33 μM with assay buffer; made in house; host or cells: E. coli or baculovirus (BV) system
T1 sequence (P27958 1027-1657): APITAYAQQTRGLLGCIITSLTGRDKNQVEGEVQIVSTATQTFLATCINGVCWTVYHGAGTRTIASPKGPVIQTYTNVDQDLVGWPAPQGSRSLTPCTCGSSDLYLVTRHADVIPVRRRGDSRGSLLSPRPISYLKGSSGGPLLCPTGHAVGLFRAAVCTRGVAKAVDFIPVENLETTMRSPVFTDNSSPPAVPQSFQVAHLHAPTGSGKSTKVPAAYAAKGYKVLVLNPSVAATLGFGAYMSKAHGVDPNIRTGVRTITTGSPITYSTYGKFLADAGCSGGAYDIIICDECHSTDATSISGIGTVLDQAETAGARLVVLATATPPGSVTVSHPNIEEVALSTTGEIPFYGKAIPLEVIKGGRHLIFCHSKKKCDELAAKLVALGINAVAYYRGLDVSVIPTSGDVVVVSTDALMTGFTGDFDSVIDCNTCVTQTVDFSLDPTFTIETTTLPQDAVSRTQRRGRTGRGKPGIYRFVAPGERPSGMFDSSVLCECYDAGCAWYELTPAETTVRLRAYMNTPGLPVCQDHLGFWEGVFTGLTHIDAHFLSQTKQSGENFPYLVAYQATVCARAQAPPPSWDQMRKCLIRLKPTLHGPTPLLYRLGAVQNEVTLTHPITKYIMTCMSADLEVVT
Outline: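 Kinetic fluorescence read (335 nm excitation, 495 nm emission, 30 min) of RETS1 cleavage by NS3/NS4A-2 complex, 2 nM E. coli or 3 nM baculovirus NS3, after 10 min room-temperature compound pre-incubation. Four-parameter-fit IC50s converted to Ki by Cheng–Prusoff, Ki=IC50/(1+[S]/Km).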

[1] = system: HCV sub-genomic replicon, GS4.3; test: Quantitation by ELISA of NPTII in the HCV sub-genomic replicon, GS4.3, Section B; format: cell-based; conditions: Hepatitis C virus; GS4.3 cells, 72 h incubation; read-out: Replicon EC50
Outline: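 NPTII marker protein in lysates was quantified by ELISA read at 450 nm after 72 h inhibitor exposure (3-fold series, final DMSO 1%, G418-free medium) of HuH-7 cells stably harbouring the subgenomic HCV replicon. Values relative to DMSO-treated controls; 4-parameter curves gave EC50.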

Row | Structure (SMILES) | IC50 (NS3-NS4A protease) [nM] | EC50 [1] [nM]
1 | O=C(NC1CCCC1)N[C@H]1CCCCC/C=C\[C@@H]2C[C@@]2(C(=O)O)NC(=O)[C@@H]2C[C@@H](OC(=O)N3Cc4ccccc4C3)CN2C1=O [AR00304079, (1S,4R,6S,14S,18R)-14-(3-Cyclopentyl-ureido)-18-(1,3-dihydro-isoindole-2-carbonyloxy)-2,15-dioxo-3,16-diaza-tricyclo[14.3.0.0^4,6]nonadec-7-ene-4-carboxylic acid] | < 100 | < 1000
2 | O=C(N[C@H]1CCCCC/C=C\[C@@H]2C[C@@]2(C(=O)NS(=O)(=O)C2CC2)NC(=O)[C@@H]2C[C@@H](OC(=O)N3CCc4ccccc4[C@@H]3CN3CCCCC3)CN2C1=O)OC1CCCC1 [AR00320556, (1S,4R,6S,14S,18R)-1-Piperidin-1R-ylmethyl-3,4-dihydro-1H-isoquinoline-2-carboxylic acid 14-cyclopentyloxycarbonylamino-4-cyclopropanesulfonylaminocarbonyl-2,15-dioxo-3,16-diaza-tricyclo[14.3.0.0^4,6]nonadec-7-en-18-yl ester] | < 100 | < 100
3 | CC(C)(C)OC(=O)N[C@H]1CCCCC/C=C\[C@@H]2C[C@@]2(C(=O)NS(=O)(=O)C2CC2)NC(=O)[C@@H]2C[C@@H](OC(=O)N3CCc4nc(Nc5ccccc5)sc4C3)CN2C1=O [AR00311814, (1S,4R,6S,14S,18R)-2-Phenylamino-6,7-dihydro-4H-thiazolo[5,4-c]pyridine-5-carboxylic acid 14-tert-butoxycarbonylamino-4-cyclopropanesulfonylaminocarbonyl-2,15-dioxo-3,16-diaza-tricyclo[14.3.0.0^4,6]nonadec-7-en-18-yl ester] | < 100 | < 10000
4 | CN1CCN(c2ccc3c(c2)CN(C(=O)O[C@@H]2C[C@H]4C(=O)N[C@]5(C(=O)NS(=O)(=O)C6CC6)C[C@H]5/C=C\CCCCC[C@H](NC(=O)OC(C)(C)C)C(=O)N4C2)C3)CC1 [AR00340495, (1S,4R,6S,14S,18R)-5-(4-Methyl-piperazin-1-yl)-1,3-dihydro-isoindole-2-carboxylic acid 14-tert-butoxycarbonylamino-4-cyclopropanesulfonylaminocarbonyl-2,15-dioxo-3,16-diaza-tricyclo[14.3.0.0^4,6]nonadec-7-en-18-yl ester] | < 100 | < 100
5 | CC(C)(C)OC(=O)N[C@H]1CCCCC/C=C\[C@@H]2C[C@@]2(C(=O)NS(C)(=O)=O)NC(=O)[C@@H]2C[C@@H](OC(=O)N3Cc4ccccc4C3)CN2C1=O [AR00333803, (1S,4R,6S,14S,18R)-1,3-Dihydro-isoindole-2-carboxylic acid 14-tert-butoxycarbonylamino-4-methanesulfonylaminocarbonyl-2,15-dioxo-3,16-diaza-tricyclo[14.3.0.0^4,6]nonadec-7-en-18-yl ester] | < 100 | < 1000
6 | O=C(N[C@H]1CCCCC/C=C\[C@@H]2C[C@@]2(C(=O)O)NC(=O)[C@@H]2C[C@@H](OC(=O)N3Cc4ccccc4C3)CN2C1=O)OC1CCOCC1 [AR00320077, (1S,4R,6S,14S,18R)-18-(1,3-Dihydro-isoindole-2-carbonyloxy)-2,15-dioxo-14-(tetrahydro-pyran-4-yloxycarbonylamino)-3,16-diaza-tricyclo[14.3.0.0^4,6]nonadec-7-ene-4-carboxylic acid] | < 1000 | < 10000
7 | CC(C)(C)OC(=O)N[C@H]1CCCCC/C=C\[C@@H]2C[C@@]2(C(=O)NS(=O)(=O)C2CC2)NC(=O)[C@@H]2C[C@@H](OC(=O)N3Cc4c(F)ccc(F)c4C3)CN2C1=O [AR00334399, (1S,4R,6S,14S,18R)-4,7-Difluoro-1,3-dihydro-isoindole-2-carboxylic acid 14-tert-butoxycarbonylamino-4-cyclopropanesulfonylaminocarbonyl-2,15-dioxo-3,16-diaza-tricyclo[14.3.0.0^4,6]nonadec-7-en-18-yl ester] | < 100 | < 100
8 | COc1ccc2[nH]c3c(c2c1)CCN(C(=O)O[C@@H]1C[C@H]2C(=O)N[C@]4(C(=O)O)C[C@H]4/C=C\CCCCC[C@H](NC(=O)OC(C)(C)C)C(=O)N2C1)C3 [AR00320577, (1S,4R,6S,14S,18R)-14-tert-Butoxycarbonylamino-18-(6-methoxy-1,3,4,9-tetrahydro-b-carboline-2-carbonyloxy)-2,15-dioxo-3,16-diaza-tricyclo[14.3.0.0^4,6]nonadec-7-ene-4-carboxylic acid] | < 1000 | < 10000
9 | O=C(N[C@H]1CCCCC/C=C\[C@@H]2C[C@@]2(C(=O)NS(=O)(=O)C2CC2)NC(=O)[C@@H]2C[C@@H](OC(=O)N3CCc4ccccc4C3)CN2C1=O)O[C@H]1CCOC1 [AR00304162, (1S,4R,6S,14S,18R)-3,4-Dihydro-1H-isoquinoline-2-carboxylic acid 4-cyclopropanesulfonylaminocarbonyl-2,15-dioxo-14-(tetrahydro-furan-3-yloxycarbonylamino)-3,16-diaza-tricyclo[14.3.0.0^4,6]nonadec-7-en-18-yl ester] | < 100 | < 100
10 | CC1CN(C(=O)O[C@@H]2C[C@H]3C(=O)N[C@]4(C(=O)NS(=O)(=O)C5CC5)C[C@H]4/C=C\CCCCC[C@H](NC(=O)OC(C)(C)C)C(=O)N3C2)Cc2ccccc21 (stereo partly drawn) [AR00312026, (1S,4R,6S,14S,18R)-4-Methyl-3,4-dihydro-1H-isoquinoline-2-carboxylic acid 14-tert-butoxycarbonylamino-4-cyclopropanesulfonylaminocarbonyl-2,15-dioxo-3,16-diaza-tricyclo[14.3.0.0^4,6]nonadec-7-en-18-yl ester] | < 100 | < 100
11 | CC(C)(C)OC(=O)N[C@H]1CCCCC/C=C\[C@@H]2C[C@@]2(C(=O)NS(=O)(=O)c2ccc(C(=O)O)cc2)NC(=O)[C@@H]2C[C@@H](OC(=O)N3Cc4cccc(F)c4C3)CN2C1=O [AR00365438, (1S,4R,6S,14S,18R)-4-Fluoro-1,3-dihydro-isoindole-2-carboxylic acid 14-tert-butoxycarbonylamino-4-(4-carboxy-benzenesulfonylaminocarbonyl)-2,15-dioxo-3,16-diaza-tricyclo[14.3.0.0^4,6]nonadec-7-en-18-yl ester] | < 100 | < 100
12 | CC(C)(C)OC(=O)N[C@H]1CCCCC/C=C\[C@@H]2C[C@@]2(C(=O)O)NC(=O)[C@@H]2C[C@@H](OC(=O)N3CCc4cc(F)ccc4C3)CN2C1=O [AR00304063, (1S,4R,6S,14S,18R)-14-tert-Butoxycarbonylamino-18-(6-fluoro-3,4-dihydro-1H-isoquinoline-2-carbonyloxy)-2,15-dioxo-3,16-diaza-tricyclo[14.3.0.0^4,6]nonadec-7-ene-4-carboxylic acid] | < 1000 | < 10000
13 | CC1CN(C(=O)O[C@@H]2C[C@H]3C(=O)N[C@]4(C(=O)O)C[C@H]4C=CCCCCC[C@H](NC(=O)OC(C)(C)C)C(=O)N3C2)Cc2ccccc21 (stereo partly drawn) [AR00304067, (1S,4R,6S,14S,18R)-14-tert-Butoxycarbonylamino-18-(4-methyl-3,4-dihydro-1H-isoquinoline-2-carbonyloxy)-2,15-dioxo-3,16-diaza-tricyclo[14.3.0.0^4,6]nonadec-7-ene-4-carboxylic acid] | < 1000 | < 10000
14 | CC(C)(C)OC(=O)N[C@H]1CCCCC/C=C\[C@@H]2C[C@@]2(C(=O)NS(=O)(=O)C2CC2)NC(=O)[C@@H]2C[C@@H](OC(=O)N3CCc4cccc(C(F)(F)F)c4C3)CN2C1=O [AR00298997, (1S,4R,6S,14S,18R)-8-Trifluoromethyl-3,4-dihydro-1H-isoquinoline-2-carboxylic acid 14-tert-butoxycarbonylamino-4-cyclopropanesulfonylaminocarbonyl-2,15-dioxo-3,16-diaza-tricyclo[14.3.0.0^4,6]nonadec-7-en-18-yl ester] | < 100 | < 100
15 | CC(C)(C)NC(=O)N[C@H]1CCCCC/C=C\[C@@H]2C[C@@]2(C(=O)O)NC(=O)[C@@H]2C[C@@H](OC(=O)N3Cc4cc(Cl)c(Cl)cc4C3)CN2C1=O [AR00320450, (1S,4R,6S,14S,18R)-14-(3-tert-Butyl-ureido)-18-(5,6-dichloro-1,3-dihydro-isoindole-2-carbonyloxy)-2,15-dioxo-3,16-diaza-tricyclo[14.3.0.0^4,6]nonadec-7-ene-4-carboxylic acid] | < 1000 | < 10000
16 | CC(C)(C)OC(=O)N[C@H]1CCCCC/C=C\[C@@H]2C[C@@]2(C(=O)NS(=O)(=O)C2CC2)NC(=O)[C@@H]2C[C@@H](OC(=O)N3Cc4ccc(OCCCN5CCOCC5)cc4C3)CN2C1=O [AR00345075, (1S,4R,6S,14S,18R)-5-(3-Morpholin-4-yl-propoxy)-1,3-dihydro-isoindole-2-carboxylic acid 14-tert-butoxycarbonylamino-4-cyclopropanesulfonylaminocarbonyl-2,15-dioxo-3,16-diaza-tricyclo[14.3.0.0^4,6]nonadec-7-en-18-yl ester] | < 100 | < 1000
17 | CC(C)S(=O)(=O)NC(=O)[C@@]12C[C@H]1/C=C\CCCCC[C@H](NC(=O)OC(C)(C)C)C(=O)N1C[C@H](OC(=O)N3Cc4ccccc4C3)C[C@H]1C(=O)N2 [AR00333801, (1S,4R,6S,14S,18R)-1,3-Dihydro-isoindole-2-carboxylic acid 14-tert-butoxycarbonylamino-2,15-dioxo-4-(propane-2-sulfonylaminocarbonyl)-3,16-diaza-tricyclo[14.3.0.0^4,6]nonadec-7-en-18-yl ester] | < 100 | < 100
